Values of other authors in patent US7879804B2, “Blood pressure lowering peptides in a single enzymatic step” (DSM IP Assets B.V., priority 2004, dated 2011).

Legend:
[1] = biological target: ACE (Homo sapiens, UniProt P12821); settings: for ACE inhibiting activities: in vitro, as reported in the literature
[2] = tested on: spontaneously hypertensive rats; settings: Nakamura et al. 1995

Chain of ACE (P12821 30-1306, species assumed): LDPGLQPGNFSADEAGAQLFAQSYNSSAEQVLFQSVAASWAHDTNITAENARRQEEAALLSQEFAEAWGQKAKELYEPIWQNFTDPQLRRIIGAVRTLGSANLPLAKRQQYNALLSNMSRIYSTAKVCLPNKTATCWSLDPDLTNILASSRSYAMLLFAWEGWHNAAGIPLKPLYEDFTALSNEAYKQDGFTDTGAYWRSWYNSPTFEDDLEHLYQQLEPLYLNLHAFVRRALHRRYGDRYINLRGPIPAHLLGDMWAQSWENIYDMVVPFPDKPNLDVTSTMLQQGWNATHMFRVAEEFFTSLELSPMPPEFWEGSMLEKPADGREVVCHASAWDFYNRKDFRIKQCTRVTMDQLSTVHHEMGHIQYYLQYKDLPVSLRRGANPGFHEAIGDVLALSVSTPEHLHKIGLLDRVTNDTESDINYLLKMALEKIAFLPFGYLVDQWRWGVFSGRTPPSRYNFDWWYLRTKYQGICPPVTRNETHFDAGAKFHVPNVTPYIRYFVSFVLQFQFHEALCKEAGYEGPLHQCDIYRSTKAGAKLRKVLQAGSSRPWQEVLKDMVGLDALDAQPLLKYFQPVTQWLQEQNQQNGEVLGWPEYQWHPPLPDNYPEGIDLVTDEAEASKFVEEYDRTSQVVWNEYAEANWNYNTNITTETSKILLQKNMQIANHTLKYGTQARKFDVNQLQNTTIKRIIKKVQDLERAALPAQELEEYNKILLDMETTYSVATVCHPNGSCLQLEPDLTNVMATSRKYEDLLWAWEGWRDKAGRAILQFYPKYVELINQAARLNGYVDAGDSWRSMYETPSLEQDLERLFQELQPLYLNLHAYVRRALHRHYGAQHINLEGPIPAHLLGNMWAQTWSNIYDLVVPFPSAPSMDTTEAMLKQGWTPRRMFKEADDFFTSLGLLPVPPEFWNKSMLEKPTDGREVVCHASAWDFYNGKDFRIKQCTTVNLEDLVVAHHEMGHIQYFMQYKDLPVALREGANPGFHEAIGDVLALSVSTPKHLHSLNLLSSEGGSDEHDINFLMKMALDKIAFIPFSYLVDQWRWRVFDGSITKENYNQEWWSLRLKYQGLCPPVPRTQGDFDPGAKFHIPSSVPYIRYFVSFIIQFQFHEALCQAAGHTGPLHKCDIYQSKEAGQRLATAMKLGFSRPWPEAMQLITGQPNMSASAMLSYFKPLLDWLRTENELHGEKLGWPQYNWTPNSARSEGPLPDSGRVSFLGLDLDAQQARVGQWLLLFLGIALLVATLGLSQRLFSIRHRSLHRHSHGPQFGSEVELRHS

ACE inhibiting activities [1]	Substance	antihypertensive effects [2]	IC50 ([1]; ACE inhibition, reported by EP 0 583 074) [µM]
Strong	Leu-Pro-Pro [LPP]	–	–
Strong	Ile-Pro-Pro [IPP]	confirmed	–

Substance	ACE inhibiting activities [1]	antihypertensive effects [2]	IC50 ([1]; ACE inhibition, reported by EP 0 583 074) [µM]
Val-Pro-Pro [VPP]	Strong	confirmed	9
